Results from US20230302142A1, “Cytotoxic Agents” (priority 2020, published 2023).

How the values were obtained:
transcription factors = assay: Transcription factor plate array assay; assay type: cell-based; details: HeLa cells, 100 nM, 6 hours
Protocol: The transcription factor plate array assay kit was obtained from Signosis Inc (USA). Briefly, 2×10^6 HeLa cells were treated with 100 nM 16 and incubated for 6 hours before extracting the nuclear protein and carrying out the TF plate array assay. The assay was carried out following the manufacturer's protocol. In the case of each transcription factor, the RLU value obtained for the cells treated with 16 was deducted from the respective values obtained for the untreated cells to obtain the differences in TF activation/inhibition.

SW620 (Colorectal) = assay: MTT cytotoxicity assay, SW620; assay type: cell-based; details: Homo sapiens, SW-620, 72 hour incubation
Protocol: (§1) The in vitro cytotoxicity of compounds 16 and 22 were evaluated in a panel of cell lines using the standard MTT assay for a 72 hour incubation period (Table 2). Free payloads produced cytotoxicities in the nanomolar to picomolar range.
(§2) Tumor cell lines were maintained in RPMI1640 medium supplemented with 10% heat-inactivated fetal bovine serum, 2 mM L-glutamine and 1 mM sodium pyruvate. 1800 cells per well were seeded in a volume of 180 μl in a 96-well flat bottom polystyrene plate. The cells were allowed to adhere overnight at 37° C. in a CO2 incubator. Ligands were initially formulated in DMSO, and stocks stored at −80° C. They were then further formulated at lox concentration in RPMI1640 medium. 20 ul of diluted samples were added into each treatment well. On each plate, blank wells with no cells, and untreated wells containing cells, were included. […] Cytotoxicity was evaluated using a tetrazolium salt-based assay, the MTT assay. […] The plate was then read on a plate reader at 540 nm, and percentage cell survival calculated as follows: ((mean absorbance treated wells at concentration x−mean absorbance blank wells)÷(mean absorbance untreated wells at concentration x−mean absorbance blank wells))×100. Data were plotted as concentration in nM vs. % cell survival in Microsoft Excel, and IC50 values (concentration where cell survival is reduced by a half) were determined from the graph.

MS1 DNA fragment = assay: DNA footprinting (DNase I); assay type: binding
Protocol: The DNA sequence selectivity profile of 16 was investigated using a modification of the previously established DNA footprinting assay. Following an overnight incubation of the ligand-DNA complexes, the mixture was mixed with strand separation buffer containing 10 mM EDTA, 10 mM NaOH, 0.1% bromophenol blue, 80% formamide and incubated at 100° C. for 3 min. The mixture was then immediately cooled on ice and run on an 8% denaturing gel. […] This is in contrast to control molecules (FIG. 2), where indiscriminate binding to the DNA sequence can be observed.
Methods for the preparation of the “MS1” DNA fragment (FIG. 2) have been previously described^[19]. Briefly, the sequence which had been cloned into the BamHI site of pUC18 was obtained by cutting with HindIII and EcoRI. Radiolabelled DNA fragments were prepared by filling in the 3′-end of the HindIII site with [α-^32P]dATP using Klenow DNA polymerase (exo-).
The radiolabelled DNA fragment was separated from the remainder of the plasmid DNA on a 6% non-denaturing polyacrylamide gel. […]
Footprinting reactions were performed as previously described^[20] using the “MS1” DNA fragment, which represents a random DNA sequence. […] After gel purification, the radiolabelled DNA was dissolved in 10 mM Tris HCl pH 7.5 containing 0.1 mM EDTA, at a concentration of about 10 c.p.s per μL as determined on a hand held Geiger counter. […]

LIM1215 (Colorectal) = assay: MTT cytotoxicity assay, LIM1215; assay type: cell-based; details: for IC50: LIM1215, MTT assay, 72 hour incubation, HIF1 negative cell-line
Protocol: as §1
Tumor cell lines were maintained in RPMI1640 medium supplemented with 10% heat-inactivated fetal bovine serum, 2 mM L-glutamine and 1 mM sodium pyruvate. 1800 cells per well were seeded in a volume of 180 μl in a 96-well flat bottom polystyrene plate. The cells were allowed to adhere overnight at 37° C. in a CO2 incubator. Ligands were initially formulated in DMSO, and stocks stored at −80° C. They were then further formulated at lox concentration in RPMI1640 medium. 20 ul of diluted samples were added into each treatment well. On each plate, blank wells with no cells, and untreated wells containing cells, were included. Plates were then cultured at 37° C. in a CO2 incubator for 72 hrs. Cytotoxicity was evaluated using a tetrazolium salt-based assay, the MTT assay. After 72 hours, the supernatant was removed from each well and 200 μl of a sterile filtered 500 μg/ml MTT solution in water added to each well. The plates were then incubated at 37° C. in a CO2 incubator for 4 hrs. The supernatant was then removed and the formazan crystals formed solubilized by adding 150 μl of DMSO to each well. The plate was then read on a plate reader at 540 nm, and percentage cell survival calculated as follows: ((mean absorbance treated wells at concentration x−mean absorbance blank wells)÷(mean absorbance untreated wells at concentration x−mean absorbance blank wells))×100. Data were plotted as concentration in nM vs. % cell survival in Microsoft Excel, and IC50 values (concentration where cell survival is reduced by a half) were determined from the graph.

SW-48 (Colorectal) = assay: MTT cytotoxicity assay, SW-48; assay type: cell-based; details: Homo sapiens, SW48, 72 hour incubation
Protocol: as §1, §2

[1] = tested on: U138-MG (Glioblastoma) HIF++; assay: MTT cytotoxicity assay, U138-MG; assay type: cell-based; details: Homo sapiens, 72 hour incubation
Protocol: as §1, §2

A431 (Skin) HIF+ = assay: MTT cytotoxicity assay, A431; assay type: cell-based; details: Homo sapiens, A-431, 72 hour incubation
Protocol: as §1, §2

Compound: COc1cc2c(cc1OCCCC(=O)Nc1cc(C(=O)Nc3ccc(-c4cc(C)c(C(=O)Nc5ccccc5)s4)nc3)n(C)c1)N=C[C@@H]1CCCCN1C2=O [Compound 16, (S)-4-(4-((2-Methoxy-12-oxo-6a,7,8,9,10,12-hexahydrobenzo[e]pyrido[1,2-a] [1,4]diazepin-3-yl)oxy)butanamido)-1-methyl-N-(6-(4-methyl-5-(phenyl-carbamoyl)thiophen-2-yl)pyridin-3-yl)-1H-pyrrole-2-carboxamide]
- major transcription factors down-regulated (transcription factors): HIF1 (hypoxia-inducible factor 1), NF-1 (Neurofibromatosis type 1), FOXG1 and NF-κB
- IC50 (SW620 (Colorectal)): 0.302 nM
- preferred binding site (sequence motif) (MS1 DNA fragment; R is preferably a G or C, X is any base): XRXXRRXX
- DNA footprint / binding pattern on the MS1 DNA sequence (MS1 DNA fragment; overnight incubation of ligand-DNA complexes): only two preferred sites were observed
- IC50 (LIM1215 (Colorectal)): 1.6 nM
- IC50 (SW-48 (Colorectal)): 0.142 nM
- IC50 [1]: 0.261 nM
- IC50 (A431 (Skin) HIF+): 0.029 nM

Compound: COc1cc2c(cc1OCCCC(=O)Nc1cc(C(=O)Nc3ccc(-c4cc(C(=O)Nc5ccccc5)n(C)c4)cc3)n(C)c1)N=C[C@@H]1CCCCN1C2=O [Compound 22, (S)-4-(4-((2-Methoxy-12-oxo-6a,7,8,9,10,12-hexahydrobenzo[e]pyrido[1,2-a][1,4]diazepin-3-yl)oxy)butanamido)-1-methyl-N-(4-(1-methyl-5-(phenylcarbamoyl)-1H-pyrrol-3-yl)phenyl)-1H-pyrrole-2-carboxamide]
- IC50 (SW620 (Colorectal)): 0.291 nM
- potency relative to 16 (LIM1215 (Colorectal); HIF1 negative cell-line LIM1215): two-fold more potent than 16
- IC50 (LIM1215 (Colorectal)): 0.899 nM
- IC50 (SW-48 (Colorectal)): 0.093 nM
- IC50 [1]: 1.62 nM
- IC50 (A431 (Skin) HIF+): 0.055 nM
